These results are taken from paper PMC11148329 (Frontiers in Cellular and Infection Microbiology, 2024).

The structures appear in SMILES notation. “And” between values parts separate entries of the source, which are not always exact repeats. Equal values may be shown once. Read-outs that look alike come from different tables or passages of the source.

Experiment [1] addresses T1, α7 nAChR (Homo sapiens, UniProt P36544). In words: cell-based. The format is cell-based.
Target sequence in this assay (P36544 23-502 limits assumed): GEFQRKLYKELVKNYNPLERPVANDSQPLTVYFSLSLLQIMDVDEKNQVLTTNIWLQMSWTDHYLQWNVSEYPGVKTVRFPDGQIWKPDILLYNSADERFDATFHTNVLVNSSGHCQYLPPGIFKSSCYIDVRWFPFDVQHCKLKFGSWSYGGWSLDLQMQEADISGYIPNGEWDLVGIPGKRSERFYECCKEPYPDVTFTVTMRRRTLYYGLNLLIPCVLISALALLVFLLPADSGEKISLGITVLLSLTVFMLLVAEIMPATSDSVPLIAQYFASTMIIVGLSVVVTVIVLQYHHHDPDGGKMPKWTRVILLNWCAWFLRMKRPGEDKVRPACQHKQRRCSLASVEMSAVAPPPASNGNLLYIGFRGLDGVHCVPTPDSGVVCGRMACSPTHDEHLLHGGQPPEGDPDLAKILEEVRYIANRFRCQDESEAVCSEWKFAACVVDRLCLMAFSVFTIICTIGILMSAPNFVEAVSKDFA
The target in experiment [2] is T1, α7 nAChR. It counts as cell-based.
Target sequence in this assay (P36544 23-502): as the sequence (P36544 23-502 limits assumed) above
A further experiment concerns the target β3-α6-β2-α4-β2 nAChR (Homo sapiens, UniProt P17787+P43681+Q15825). In words: cell-based.
The target in experiment [3] is T2, (α4β2)2β2 nAChR (Homo sapiens, UniProt P17787+P43681). In words: cell-based.
T2 sequence (P43681 27-627 limits assumed): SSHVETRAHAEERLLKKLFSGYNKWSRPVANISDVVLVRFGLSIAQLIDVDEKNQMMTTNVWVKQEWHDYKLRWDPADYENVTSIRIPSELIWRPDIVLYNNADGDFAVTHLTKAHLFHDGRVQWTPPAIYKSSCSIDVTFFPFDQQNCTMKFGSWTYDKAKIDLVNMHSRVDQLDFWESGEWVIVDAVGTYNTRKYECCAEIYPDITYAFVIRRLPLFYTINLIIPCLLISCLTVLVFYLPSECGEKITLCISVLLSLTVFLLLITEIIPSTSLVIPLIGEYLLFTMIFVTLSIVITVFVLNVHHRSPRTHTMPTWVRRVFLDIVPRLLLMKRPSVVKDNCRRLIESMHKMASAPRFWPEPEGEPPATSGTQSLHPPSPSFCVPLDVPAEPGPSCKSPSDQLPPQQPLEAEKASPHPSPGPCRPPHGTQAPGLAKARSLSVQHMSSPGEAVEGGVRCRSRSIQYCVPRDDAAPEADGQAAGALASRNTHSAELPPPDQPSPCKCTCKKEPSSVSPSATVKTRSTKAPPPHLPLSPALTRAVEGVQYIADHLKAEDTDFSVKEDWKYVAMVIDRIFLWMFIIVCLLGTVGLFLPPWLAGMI
T2 sequence (P17787 26-502 limits assumed): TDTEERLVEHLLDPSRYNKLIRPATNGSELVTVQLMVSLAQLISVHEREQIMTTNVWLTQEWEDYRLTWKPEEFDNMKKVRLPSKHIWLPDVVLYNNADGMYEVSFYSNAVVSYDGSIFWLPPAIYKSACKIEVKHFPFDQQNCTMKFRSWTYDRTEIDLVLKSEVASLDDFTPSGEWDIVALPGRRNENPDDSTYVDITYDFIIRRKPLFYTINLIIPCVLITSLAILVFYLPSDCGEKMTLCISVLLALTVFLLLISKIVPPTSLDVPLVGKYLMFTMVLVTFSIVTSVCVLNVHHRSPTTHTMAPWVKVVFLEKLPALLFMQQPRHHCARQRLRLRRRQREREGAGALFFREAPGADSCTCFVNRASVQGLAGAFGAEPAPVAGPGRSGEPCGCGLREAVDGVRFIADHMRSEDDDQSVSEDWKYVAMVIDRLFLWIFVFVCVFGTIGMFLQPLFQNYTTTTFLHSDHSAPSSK
The target in experiment [4] is T3, (α4β2)2α4 nAChR (Homo sapiens, UniProt P17787+P43681). In words: cell-based. The note with it: read-out: ACh EC90.
T3 sequence (P43681 29-627 limits assumed): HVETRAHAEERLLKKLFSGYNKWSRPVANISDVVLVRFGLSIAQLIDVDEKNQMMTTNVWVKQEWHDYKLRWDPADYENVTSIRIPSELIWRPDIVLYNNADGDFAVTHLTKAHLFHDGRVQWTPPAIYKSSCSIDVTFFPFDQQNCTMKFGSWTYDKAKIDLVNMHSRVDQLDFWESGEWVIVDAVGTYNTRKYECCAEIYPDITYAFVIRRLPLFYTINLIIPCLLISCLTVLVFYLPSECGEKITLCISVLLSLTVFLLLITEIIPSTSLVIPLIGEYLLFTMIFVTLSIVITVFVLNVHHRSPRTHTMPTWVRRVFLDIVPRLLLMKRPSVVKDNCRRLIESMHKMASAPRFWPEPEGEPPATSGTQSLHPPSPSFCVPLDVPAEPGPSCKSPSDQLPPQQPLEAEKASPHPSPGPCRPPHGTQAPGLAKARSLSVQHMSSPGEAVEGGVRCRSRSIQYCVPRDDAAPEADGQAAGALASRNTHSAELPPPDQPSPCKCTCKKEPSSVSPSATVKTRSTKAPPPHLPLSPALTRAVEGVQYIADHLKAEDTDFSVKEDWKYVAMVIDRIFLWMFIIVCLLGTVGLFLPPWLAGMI
T3 sequence (P17787 26-502 limits assumed): as the sequence (P17787 26-502 limits assumed) above
The target of experiment [5] is T4, (α3β2)2β2 nAChR (Homo sapiens, UniProt P17787+P32297). The experiment in a line: cell-based.
Experiment [6] has as its target T5, α4β2α5 nAChR (Homo sapiens, UniProt P17787+P30532+P43681).
Experiment [7] concerns the target T6, (α3β4)2β4 nAChR (Homo sapiens, UniProt P30926+P32297).
Experiment [8] concerns the target T7, (α3β4)2α3 nAChR (Homo sapiens, UniProt P30926+P32297).
Experiment [9] addresses T5, α4β2α5 nAChR. The experiment in a line: cell-based. The note with it: read-out: ACh EC90.
For experiment [10], the target named is T1, α7 nAChR. The experiment in a line: cell-based. It counts as cell-based. This is another data set of the same source.
Target sequence in this assay (P36544 23-502 limits assumed): as the sequence (P36544 23-502 limits assumed) above
The target of the next experiment is α6/α3β2β3 nAChR (Homo sapiens, UniProt P17787+P32297+Q05901+Q15825). The experiment in a line: cell-based.
The target in experiment [11] is T5, α4β2α5 nAChR. The experiment in a line: cell-based.
In experiment [12] the target is T2, (α4β2)2β2 nAChR. The experiment in a line: cell-based. The note with it: read-out: % Max Inhibition (95% CI).
In experiment [13] the target is T3, (α4β2)2α4 nAChR. In words: cell-based.
For experiment [14], the target named is T4, (α3β2)2β2 nAChR. In words: cell-based. The note with it: read-out: % Max Inhibition (95% CI).
The next experiment addresses (α3β2)2α3 nAChR (Homo sapiens, UniProt P17787+P32297). In words: cell-based. The note with it: read-out: % Max Inhibition (95% CI).
The target of experiment [15] is T6, (α3β4)2β4 nAChR. The experiment in a line: cell-based. The note with it: read-out: % Max Inhibition (95% CI).
Experiment [16] deals with T7, (α3β4)2α3 nAChR. The experiment in a line: cell-based. The note with it: read-out: % Max Inhibition (95% CI).
[17] abbreviates: read-out: % Max Inhibition (95% CI).

T5 sequence (P43681 29-627 limits assumed): as the sequence (P43681 29-627 limits assumed) above
T5 sequence (P17787 26-502 limits assumed): as the sequence (P17787 26-502 limits assumed) above
T5 sequence (P30532 23-468 partner limits assumed): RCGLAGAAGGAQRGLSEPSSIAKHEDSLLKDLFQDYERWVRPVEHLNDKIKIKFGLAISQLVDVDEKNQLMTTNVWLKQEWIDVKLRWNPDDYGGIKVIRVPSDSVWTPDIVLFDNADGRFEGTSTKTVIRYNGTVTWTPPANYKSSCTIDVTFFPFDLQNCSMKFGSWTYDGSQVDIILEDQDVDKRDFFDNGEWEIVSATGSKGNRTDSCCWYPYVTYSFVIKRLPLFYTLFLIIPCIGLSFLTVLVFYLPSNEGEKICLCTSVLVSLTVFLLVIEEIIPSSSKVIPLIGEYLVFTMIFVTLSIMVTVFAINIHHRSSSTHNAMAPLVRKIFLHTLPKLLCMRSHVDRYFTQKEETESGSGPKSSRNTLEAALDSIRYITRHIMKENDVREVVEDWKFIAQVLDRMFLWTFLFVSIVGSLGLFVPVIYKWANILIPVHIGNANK

`CC(=O)OCC[N+](C)(C)C` [ACh, acetylcholine]: the “NH (95% CI) of ACh curve, drug treatment none” value on α7 nAChR [1] is listed as 1.1 (1.0 - 1.2). In addition, the “NH (1) (95% CI)” value is recorded as 1.6 (1.4 – 1.9) on α7 nAChR [2]; 0.77 (0.69 – 0.85) at β3-α6-β2-α4-β2 nAChR; 0.85 (0.76 – 0.95) on (α4β2)2β2 nAChR [3]; 0.95 (0.84 – 1.1) on (α3β2)2β2 nAChR [5]; 0.90 (0.82 – 0.99) at α4β2α5 nAChR [6]; 1.0 (0.92 – 1.2) on (α3β4)2β4 nAChR [7]. Moreover, the “NH (1) (95% CI)” value at (α3β4)2α3 nAChR [8] is on record as 1.9 (1.7 – 2.1). In addition, the 90% effect concentration (EC90) on α7 nAChR [2] (read-out: ACh EC90) turned out to be 1260 µM; on β3-α6-β2-α4-β2 nAChR (read-out: ACh EC90), 40 µM; at (α4β2)2β2 nAChR [3] (read-out: ACh EC90), 100 µM; at (α4β2)2α4 nAChR [4] it was 316 µM; on (α3β2)2β2 nAChR [5] (read-out: ACh EC90) it was 316 µM; on α4β2α5 nAChR [9], 20 µM.
For the compound `CCN1C[C@]2(COC(=O)c3ccccc3N3C(=O)C[C@H](C)C3=O)CC[C@H](OC)[C@@]34[C@@H]5C[C@H]6[C@H](OC)[C@@H]5[C@](O)(C[C@@H]6OC)[C@@](O)([C@@H](OC)[C@H]23)[C@@H]14` [MLA, Methyllycaconitine], the “block of ACh EC90 response by MLA” value on α7 nAChR [10] is given as “prevented α7 nAChR activation”. The “NH (95% CI) of ACh curve with co-applied MLA” value at α7 nAChR [1] is 0.9 (0.8 - 1.1) and 1.1 (0.9 - 1.2). Also, the IC50 at α7 nAChR [1] (IC50 (95% CI): ACh apparent potency with co-applied MLA) was 330 µM and 412 µM.
Consider `CC[C@H](C)[C@H](NC(=O)[C@H](CC(=O)O)NC(=O)[C@H](CS)NC(=O)[C@H](CO)NC(=O)[C@@H](NC(=O)CNC(=O)[C@H](CC(C)C)NC(=O)[C@H](CCCNC(=N)N)NC(=O)[C@@H]1CCCN1C(=O)[C@H](CC(N)=O)NC(=O)[C@H](CCC(=O)O)NC(=O)[C@@H]1CCCN1C(=O)[C@H](CCSC)NC(=O)[C@H](Cc1c[nH]c2ccccc12)NC(=O)[C@@H](NC(=O)[C@@H](NC(=O)[C@@H](N)Cc1ccc(O)cc1)[C@@H](C)O)[C@@H](C)CC)[C@@H](C)O)C(=O)N[C@@H](Cc1ccccc1)C(=O)N[C@H](C(=O)N[C@@H](CC(N)=O)C(=O)N[C@@H](CO)C(=O)N[C@@H](CCCNC(=N)N)C(=O)NCC(=O)N[C@@H](CCCCN)C(=O)N[C@@H](CCCNC(=N)N)C(=O)N[C@@H](C)C(=O)N[C@@H](CO)C(=O)N[C@@H](CCCCN)C(=O)NCC(=O)O)[C@@H](C)O` [RVG peptide], for which, on α7 nAChR [10], the “% Max Inhibition of ACh EC90 (95% CI)” value is 98 (97 – 99) %. Also, the half-inhibitory concentration (IC50) against α7 nAChR [10] is 25 µM; against α6/α3β2β3 nAChR, 300 µM; against α4β2α5 nAChR [11], 340 µM; on (α4β2)2α4 nAChR [13] (IC50 (95% CI)), 270 µM; against (α4β2)2α4 nAChR [13] (IC50, 95% CI), 220 to 340 µM. For the same compound, the inhibition at 1000 µM at α6/α3β2β3 nAChR (setting [17]) is 82%; at α4β2α5 nAChR [11] (setting [17]), 67%; on (α4β2)2β2 nAChR [12], 46%; at (α4β2)2α4 nAChR [13] (setting [17]), 76%; at (α3β2)2β2 nAChR [14], 57%; at (α3β2)2α3 nAChR it was 67%. Besides, the inhibition at 1000 µM on (α3β4)2β4 nAChR [15] is 22%; on (α3β4)2α3 nAChR [16] it was 49%.

The EC90 is the concentration at which the effect reaches the 90% level. The IC50 is the midpoint of a concentration-inhibition curve. The inhibition is the drop in the measured response relative to a control, in per cent.
